{"source": "patent US9029337B2", "about": "“Modulation of factor 7 expression” (Isis Pharmaceuticals, Inc., priority 2007, dated 2015)", "test_system": "human Factor 7 mRNA", "experiment": "Antisense inhibition of human Factor 7 mRNA in HepB3 cells, 50 nM antisense oligonucleotide, lipofectin", "type": "cell-based", "details": "for % Inhibition: lipofectin, approximately 24 hours; for % Inhibition of human Factor 7 mRNA levels: gapmers targeted to nucleobases 4868 to 4899 of SEQ ID NO: 1, Table 8", "procedure,_shortened": "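HepB3 cells were transfected by lipofectin with 50 nM antisense oligonucleotide and harvested after about 24 h. Factor 7 mRNA was measured by real-time RT-PCR (primer probe set RTS 2927 in some runs), normalized to RIBOGREEN total RNA, and reported as percent inhibition versus untreated control.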", "key": {"[1]": {"details": "Table 1, 50 nM, relative to untreated control cells"}, "[2]": {"details": "50 nM antisense oligonucleotide, Factor 7 mRNA by real-time RT-PCR (RTS 2927), relative to untreated control"}, "[3]": {"details": "oligonucleotides targeted to nucleobases 11830 to 11869 of SEQ ID NO: 1 (Table 9)"}, "[4]": {"details": "oligonucleotides targeted to nucleobases 13760 to 13789 of SEQ ID NO: 1 (Table 10)"}}, "note": "Strand notation (5' to 3'): a small letter for the sugar, then the base; units joined by * are phosphorothioate-linked, units joined directly phosphodiester-linked; [ ] holds rarer units or linkages, { } end groups; capitals alone tell only the bases. e = 2'-O-(2-methoxyethyl) (MOE); [5mC] = 5-methylcytosine; d = 2'-deoxy (DNA)"}
{"substance": "407616 (antisense eT*eG*e[5mC]*eA*eG*dG*dA*d[5mC]*dA*d[5mC]*d[5mC]*d[5mC]*d[5mC]*dG*dT*e[5mC]*eT*eG*e[5mC]*e[5mC]) [compound 407616]", "values": [{"measurement": "% Inhibition", "setting": "[1]", "value": 64, "unit": "%"}]}
{"substance": "407597 (antisense eT*eG*eT*eT*eG*dA*d[5mC]*dA*dT*dT*d[5mC]*d[5mC]*d[5mC]*d[5mC]*dA*eT*eG*eG*eG*eA) [compound 407597]", "values": [{"measurement": "% Inhibition", "setting": "[1]", "value": 39, "unit": "%"}]}
{"substance": "407607 (antisense eT*eG*eG*eA*eG*d[5mC]*dT*dG*dG*dT*d[5mC]*d[5mC]*dT*dT*dG*e[5mC]*eA*eG*eG*eA) [compound 407607]", "values": [{"measurement": "% Inhibition", "setting": "[1]", "value": 76, "unit": "%"}]}
{"substance": "416555 (antisense eA*eA*eA*eG*eA*dT*d[5mC]*dA*dG*dG*d[5mC]*dA*dA*dA*dG*eA*eT*e[5mC]*e[5mC]*e[5mC]) [compound 416555]", "values": [{"measurement": "% Inhibition", "setting": "[2]", "value": 6, "unit": "%"}]}
{"substance": "422104 (antisense eG*eG*e[5mC]*eT*eG*dA*dG*dG*dA*dG*dA*d[5mC]*dA*dA*dT*eG*eG*eT*e[5mC]*eA) [compound 422104]", "values": [{"measurement": "% Inhibition (human Factor 7 mRNA levels)", "setting": "[3]", "value": 59, "unit": "%"}]}
{"substance": "416530 (antisense eA*eG*eG*eG*eT*dA*dG*d[5mC]*d[5mC]*dT*dT*dT*dG*d[5mC]*d[5mC]*eT*eT*eG*eG*e[5mC]) [compound 416530]", "values": [{"measurement": "% Inhibition", "setting": "[2]", "value": 35, "unit": "%"}]}
{"substance": "416528 (antisense eT*eG*eA*eT*eA*dA*dA*dA*d[5mC]*d[5mC]*dT*d[5mC]*dT*dG*dG*eA*e[5mC]*eA*e[5mC]*e[5mC]) [compound 416528]", "values": [{"measurement": "% Inhibition", "setting": "[2]", "value": 10, "unit": "%"}]}
{"substance": "422196 (antisense eT*eA*e[5mC]*dT*dG*dA*dG*d[5mC]*dG*d[5mC]*dG*dG*dA*dA*dG*dA*dA*eG*eG*eG) [compound 422196]", "values": [{"measurement": "% Inhibition", "setting": "Table 6, 50 nM", "value": 2, "unit": "%"}]}
{"substance": "422113 (antisense eG*e[5mC]*e[5mC]*eA*e[5mC]*d[5mC]*d[5mC]*dG*d[5mC]*d[5mC]*dG*dG*d[5mC]*dT*d[5mC]*eT*eG*e[5mC]*eT*e[5mC]) [compound 422113]", "values": [{"measurement": "% Inhibition (human Factor 7 mRNA levels)", "setting": "[4]", "value": 68, "unit": "%"}]}
{"substance": "422243 (antisense eA*eG*dG*dA*dG*dA*d[5mC]*dA*dA*dT*dG*dG*dT*d[5mC]*dA*eG*eG*eG*e[5mC]*eT) [compound 422243]", "values": [{"measurement": "% Inhibition (human Factor 7 mRNA levels)", "setting": "[3]", "value": 62, "unit": "%"}]}
{"substance": "422189 (antisense e[5mC]*eG*e[5mC]*dG*dG*dA*dA*dG*dA*dA*dG*dG*dG*dA*d[5mC]*dG*dG*eA*eA*eG) [compound 422189]", "values": [{"measurement": "% Inhibition", "setting": "Table 6, 50 nM", "value": 0, "unit": "%"}]}
{"substance": "407926 (antisense e[5mC]*e[5mC]*eA*eG*eG*dA*d[5mC]*dA*dA*d[5mC]*d[5mC]*dT*dT*dG*dG*e[5mC]*eA*e[5mC]*eT*e[5mC]) [compound 407926]", "values": [{"measurement": "% Inhibition", "setting": "[1]", "value": 79, "unit": "%"}]}
{"substance": "416532 (antisense eG*eG*eA*e[5mC]*e[5mC]*d[5mC]*dA*dG*dA*dT*dG*dA*d[5mC]*d[5mC]*dA*eG*e[5mC]*eA*eG*eG) [compound 416532]", "values": [{"measurement": "% Inhibition", "setting": "[2]", "value": 12, "unit": "%"}]}
{"substance": "422118 (antisense e[5mC]*eG*eG*eA*eA*dG*dA*dA*dG*dG*dG*dA*d[5mC]*dG*dG*eA*eA*eG*eG*eT) [compound 422118]", "values": [{"measurement": "% Inhibition", "setting": "Table 6, 50 nM", "value": 15, "unit": "%"}]}
{"substance": "422297 (antisense e[5mC]*e[5mC]*d[5mC]*dG*dA*dG*dT*dT*d[5mC]*dT*dG*d[5mC]*dA*dG*dG*eA*eG*e[5mC]*eG*eG) [compound 422297]", "values": [{"measurement": "% Inhibition of human Factor 7 mRNA levels", "value": 63, "unit": "%"}]}
{"substance": "407911 (antisense e[5mC]*e[5mC]*e[5mC]*e[5mC]*eT*dT*dG*d[5mC]*dA*dG*dG*dA*dG*dT*d[5mC]*e[5mC]*eT*eT*eG*e[5mC]) [compound 407911]", "values": [{"measurement": "% Inhibition", "setting": "[1]", "value": 74, "unit": "%"}]}
{"substance": "407937 (antisense eG*eA*eA*eG*eG*dG*dA*dG*dA*dA*dA*dT*dA*d[5mC]*dA*eT*eT*eT*eG*eG) [compound 407937]", "values": [{"measurement": "% Inhibition", "setting": "[1]", "value": 59, "unit": "%"}]}
{"substance": "422241 (antisense eG*eA*dG*dA*d[5mC]*dA*dA*dT*dG*dG*dT*d[5mC]*dA*dG*dG*eG*e[5mC]*eT*eG*eG) [compound 422241]", "values": [{"measurement": "% Inhibition (human Factor 7 mRNA levels)", "setting": "[3]", "value": 61, "unit": "%"}]}
{"substance": "407659 (antisense eG*eA*eT*eG*eG*d[5mC]*dA*dT*d[5mC]*dG*dA*dG*dT*d[5mC]*d[5mC]*eA*e[5mC]*eT*e[5mC]*eT) [compound 407659]", "values": [{"measurement": "% Inhibition", "setting": "[1]", "value": 55, "unit": "%"}]}
{"substance": "407649 (antisense eG*eA*eG*eG*eG*dT*dT*d[5mC]*dA*dT*dT*dT*d[5mC]*dA*dG*eT*eG*eA*eT*eG) [compound 407649]", "values": [{"measurement": "% Inhibition", "setting": "[1]", "value": 24, "unit": "%"}]}
{"substance": "407952 (antisense eG*eG*eA*eT*e[5mC]*d[5mC]*dT*dG*dG*dG*dA*dG*d[5mC]*dT*dA*e[5mC]*eA*eG*e[5mC]*e[5mC]) [compound 407952]", "values": [{"measurement": "% Inhibition", "setting": "[1]", "value": 41, "unit": "%"}]}
{"substance": "416451 (antisense eG*e[5mC]*e[5mC]*eA*eT*dG*dG*dA*d[5mC]*dA*d[5mC]*dT*d[5mC]*d[5mC]*d[5mC]*e[5mC]*eT*eT*eT*eG) [compound 416451]", "values": [{"measurement": "% Inhibition", "setting": "[2]", "value": 75, "unit": "%"}]}
{"substance": "422141 (antisense eA*eG*eT*eT*e[5mC]*dT*dG*d[5mC]*dA*dG*dG*dA*dG*d[5mC]*dG*eG*e[5mC]*e[5mC]*eT*eA) [compound 422141]", "values": [{"measurement": "% Inhibition of human Factor 7 mRNA levels", "value": 64, "unit": "%"}]}
{"substance": "407608 (antisense eT*eA*eT*eA*eG*dG*dA*d[5mC]*dT*dG*dG*dA*dG*d[5mC]*dT*eG*eG*eT*e[5mC]*e[5mC]) [compound 407608]", "values": [{"measurement": "% Inhibition", "setting": "[1]", "value": 13, "unit": "%"}]}
{"substance": "407950 (antisense eA*eG*e[5mC]*eT*eT*d[5mC]*d[5mC]*dA*dT*dG*dT*dG*dA*dG*dG*eG*eT*eT*e[5mC]*eA) [compound 407950]", "values": [{"measurement": "% Inhibition", "setting": "[1]", "value": 58, "unit": "%"}]}
{"substance": "407628 (antisense eT*eG*eA*eT*eG*dA*d[5mC]*d[5mC]*dT*dG*d[5mC]*dG*d[5mC]*d[5mC]*dA*e[5mC]*e[5mC]*e[5mC]*eG*e[5mC]) [compound 407628]", "values": [{"measurement": "% Inhibition", "setting": "[1]", "value": 38, "unit": "%"}]}
{"substance": "422267 (antisense eG*e[5mC]*dG*d[5mC]*dG*dG*dA*dA*dG*dA*dA*dG*dG*dG*dA*e[5mC]*eG*eG*eA*eA) [compound 422267]", "values": [{"measurement": "% Inhibition", "setting": "Table 6, 50 nM", "value": 38, "unit": "%"}]}
{"substance": "422254 (antisense e[5mC]*e[5mC]*d[5mC]*dG*d[5mC]*d[5mC]*dG*dG*d[5mC]*dT*d[5mC]*dT*dG*d[5mC]*dT*e[5mC]*eA*eT*e[5mC]*e[5mC]) [compound 422254]", "values": [{"measurement": "% Inhibition (human Factor 7 mRNA levels)", "setting": "[4]", "value": 42, "unit": "%"}]}
{"substance": "416461 (antisense eG*eA*eA*eG*e[5mC]*dG*d[5mC]*dA*d[5mC]*dG*dA*dA*dG*dG*d[5mC]*e[5mC]*eA*eG*e[5mC]*eG) [compound 416461]", "values": [{"measurement": "% Inhibition", "setting": "[2]", "value": 43, "unit": "%"}]}
{"substance": "422290 (antisense eT*e[5mC]*dT*dG*d[5mC]*dA*dG*dG*dA*dG*d[5mC]*dG*dG*d[5mC]*d[5mC]*eT*eA*eA*eA*eT) [compound 422290]", "values": [{"measurement": "% Inhibition of human Factor 7 mRNA levels", "value": 50, "unit": "%"}]}
{"substance": "422256 (antisense e[5mC]*eA*d[5mC]*d[5mC]*d[5mC]*dG*d[5mC]*d[5mC]*dG*dG*d[5mC]*dT*d[5mC]*dT*dG*e[5mC]*eT*e[5mC]*eA*eT) [compound 422256]", "values": [{"measurement": "% Inhibition (human Factor 7 mRNA levels)", "setting": "[4]", "value": 29, "unit": "%"}]}
{"substance": "416500 (antisense e[5mC]*eT*eG*eA*eA*d[5mC]*dA*d[5mC]*d[5mC]*d[5mC]*d[5mC]*dA*dG*d[5mC]*dT*eG*eA*eG*eA*eG) [compound 416500]", "values": [{"measurement": "% Inhibition", "setting": "[2]", "value": 1, "unit": "%"}]}
{"substance": "422120 (antisense e[5mC]*eG*e[5mC]*eG*eG*dA*dA*dG*dA*dA*dG*dG*dG*dA*d[5mC]*eG*eG*eA*eA*eG) [compound 422120]", "values": [{"measurement": "% Inhibition", "setting": "Table 6, 50 nM", "value": 40, "unit": "%"}]}
{"substance": "416435 (antisense e[5mC]*e[5mC]*e[5mC]*eA*eT*d[5mC]*dA*d[5mC]*dT*dG*dT*dA*dA*dG*dA*eA*eA*eT*e[5mC]*e[5mC]) [compound 416435]", "values": [{"measurement": "% Inhibition", "setting": "[2]", "value": 3, "unit": "%"}]}
{"substance": "422162 (antisense eG*eA*e[5mC]*dA*dA*dT*dG*dG*dT*d[5mC]*dA*dG*dG*dG*d[5mC]*dT*dG*eG*eT*eT) [compound 422162]", "values": [{"measurement": "% Inhibition (human Factor 7 mRNA levels)", "setting": "[3]", "value": 59, "unit": "%"}]}
